Measured values from patent publication US10434199B2, “Picolinate cross-bridged cyclams, chelates with metallic cations and use thereof” (UNIVERSITÉ DE BRETAGNE OCCIDENTALE, priority 2013, dated 2019).

Assays:
Assay type in all cases: physicochemical
[1] = Cyclic voltammetry of the copper(II) complexes; conditions: overview table
Method: Cyclic voltammograms were measured using Autolab equipment at room temperature. All measurements were made using a three-electrode system: a glassy-carbon electrode as a working electrode, a platinum wire as a counter-electrode, and a saturated calomel reference electrode. All electrochemical experiments were performed in ca. 1 mM aqueous solutions of preformed complex under a N2 atmosphere containing 0.1 M NaClO4 as the supporting electrolyte. From the initial potential of the analysis (0 V), the voltage was ramped to −1.3 V, then to 0.2 V, and back to 0 V at a scan rate of 100 mV/s. All potentials are expressed relative to the saturated calomel electrode (SCE) except otherwise noted.
One of the explanations for the dissociation of copper(II) complexes of macrocyclic ligands in biological media is the metal reduction to copper(I) followed by the demetallation of the complex. It is thus important to ensure the electrochemical inertness as well as the reversibility of the redox system. To determine the redox behavior of the copper complex of Hcb-te1pa, cyclic voltammetry experiments were performed in aqueous solution at pH values of 2.3 and 6.8. The experiments were carried out with a glassy-carbon working electrode in solutions containing 0.1 M NaClO4 as supporting electrolyte.

[2] = Copper(II) complex formation kinetics (UV-vis, buffered aqueous solutions); conditions: for time to completion (>99%) of copper(II) complex formation: 25° C.
Method: Complex Formation. The formation of the copper(II) complex of Hcb-te1pa was studied in buffered aqueous solutions at 25° C. The increasing intensity of the complex d-d transition band in the visible range (600 nm) was followed at pH=5.0 (0.2 M potassium acetate buffer) and pH=7.4 (0.2 M HEPES buffer), with [Cu^2+]=[Hcb-te1pa]=0.8 mM. Additionally, complex formation was also studied at pH=3.0 (0.2 M (K,H)Cl) under pseudo-first order conditions, by following the increasing charge transfer band in the UV range (at 310 nm) at [Cu^2+]=10×[Hcb-te1pa]=2 mM.
The copper(II) complex formation with Hcb-te1pa was spectroscopically monitored in different buffered solutions from acidic to neutral pH. […] The reaction becomes progressively slower because of the increase of the acidity of the reaction media, enabling a kinetic study under pseudo-first order conditions using conventional UV-vis spectroscopic methods. In this work such kinetic study was performed at pH=3, which is at the lower limit of the pH range in which the copper(II) complexation is approximately complete under equilibrium in equimolar metal-to-ligand conditions.

[3] = Potentiometric titrations: stability constants and pM of Zn^2+ complexes
Method: Equipment and work conditions. The potentiometric setup has been described in Roger, M. et al. Inorg. Chem. 2013, 52, 5246-5259. The titrant was a KOH solution prepared at ca. 0.1 M from a commercial ampoule of analytical grade, and its accurate concentration was obtained by application of the Gran's method upon titration of a standard HNO3 solution (Rossotti, F. J. and Rossotti, H. J. J. Chem. Educ. 1965, 42, 375-378). Ligand solutions were prepared at about 2.0×10^−3 M, and the Cu^2+ and Zn^2+ solutions at ca. 0.05 M from analytical grade nitrate salts and standardized by complexometric titrations with H4edta (ethylenediaminetetraacetic acid). Sample solutions for titration contained approximately 0.04 mmol of ligand in a volume of 30 mL where the ionic strength was kept at 0.10 M using KNO3 as background electrolyte. Metal cations were added at 0.9 equiv. of the ligand amount in complexation titrations. Batch titrations were prepared in a similar way but with each titration point corresponding to 1/10 of the amount of a conventional titration sample. Batch titration points were incubated in tightly closed vials at 25° C. until potential measurements attained complete stability, which happened within a week.
Measurements. All measurements were carried out at 25.0±0.1° C. under inert atmosphere. The electromotive force of the sample solutions was measured after calibration of the electrodes by titration of a standard HNO3 solution at 2.0×10^−3 M in the work conditions. The [H^+] of the solutions was determined by measurement of the electromotive force of the cell, E=E^o′+Q log [H^+]+Ej. The term pH is defined as −log [H^+]. E^o′ and Q were determined from the acid region of the calibration curves. Deviations from the Nernst law at very low pH (pH<2.5) were corrected with the VLpH software (Calibration software from the maker of Hyperquad available for free at http://www.hyperquad.co.uk/), which performs a [H^+] correction based on a very low pH calibration procedure. The liquid-junction potential, Ej, was otherwise found to be negligible for pH >2.5 under the experimental conditions used. […] Each titration consisted of 80-100 equilibrium points in the range of pH 2.5-11.5 (or 1.5-11.5 for Cu^2+ complexations), and at least two replicate titrations were performed for each particular system.
Calculations. The potentiometric data were refined with the Hyperquad software, and speciation diagrams were plotted using the HySS software. The overall equilibrium constants βi^H and βMmHhL1 are defined by βMmHhL1=[MmHhLl]/[M]^m[H]^h[L]^l (βi^H=[HhLl]/[H]^h[L]^l and βML-1L=βML(OH)×Kw). Differences in log units between the values of protonated (or hydrolysed) and non-protonated constants provide the stepwise (log K) reaction constants (being KMmHhL1=[MmHhLl]/[MmHh-1Ll][H]). The errors quoted are the standard deviations calculated by the fitting program from all the experimental data for each system.
The stability constants of the complexes formed by Hcb-te1pa with Cu^2+ and Zn^2+ were determined by potentiometric titrations in aqueous solution at 25.0° C. in 0.10 M KNO3 ionic strength (Table 2).
The equilibrium of formation of the copper(II) and especially the zinc(II) complexes is slow in the acidic pH range. In the case of Cu^2+, the complexation is almost complete from low pH but relatively slow up to pH=4. To overcome this double problem, conventional titrations were performed at pH values below 2 in order to observe a significant percentage of free metal ion (at least 18%) and thus allow for determination of the corresponding stability constant, while giving the solution enough time to reach equilibrium prior to the start of the titration. During titrations, each experimental point included a supplementary equilibration time in order to yield fully stabilized measurements. […]

e) stability upon reduction, Cu(II) -> Cu (I): reduction potential [1]: −0.696 V | e) stability upon reduction, Cu(II) -> Cu (I): reversibility [1]: reversible | log KMLHh, ZnLOH + H^+ ⇌ ZnL ([3]; 25.0° C., I = 0.10M KNO3): 11.33 log units | log KMLHh, Zn^2+ + L ⇌ ZnL ([3]; 25.0° C., I = 0.10M KNO3): 18.83 log units | log βMLHh, Zn^2+ + L ⇌ ZnL ([3]; 25.0° C., I = 0.10M KNO3): 18.83(6) log units | log βMLHh, Zn^2+ + L ⇌ ZnLOH + H^+ ([3]; 25.0° C., I = 0.10M KNO3): 7.50(7) log units | c) inertness vs Zn: log K[ZnL] ([3]; overview table): 18.83 | c) inertness vs Zn: pZn ([3]; overview table, calculated pM): 8.50 | Calculated pM, Zn^2+ ([3]; pH = 7.4, 100% excess of ligand, [M^2+]tot = 1 × 10^−5 M): 8.50
SMILES: O=C(O)c1cccc(CN2CCCN3CCNCCCN(CC3)CC2)n1 [Hcb-te1pa, 6-(1,4,8,11-tetraazabicyclo[6.6.2]hexadecan-4-ylmethyl)picolinic acid]
a) metallation kinetics: time required for complete (>99%) Cu complexation ([2]; overview table): 3 min | time to quantitative (>99%) formation of copper(II) complex ([2]; pH=3, pseudo-first order, excess of 10 equivalents of metal cation): ≤ 10 min | time to completion (>99%) of copper(II) complex formation ([2]; pH=5, equimolar metal-to-ligand ratio): ≤ 3 min | time to completion (>99%) of copper(II) complex formation ([2]; physiological pH (7.4), equimolar metal-to-ligand ratio): within a few seconds | copper chelated immediately ([2]; remaining copper chelated within a few seconds): more than 90%
